What was measured:
[1] = system: hepatocellular carcinoma HepG2 cell line; assay: MTT cytotoxicity assay, HepG2; assay type: cell-based, human; details: 24 h treatment, mean ± SE
Procedure: All the newly synthesized analogs were evaluated for their in vitro cytotoxicity against the hepatocellular carcinoma HepG2 cell line. Podo was utilized as a reference control in the current study. […] The N-phenyl triazinone derivative 9 was further investigated for its cytotoxic effects against normal liver cell line HL-7702.
MTT colorimetric assay was carried out to investigate the impact of the newly synthesized compounds 2–11 on hepatocellular carcinoma (HepG2) and normal liver cell line (HL-7702) cell lines. See Section 3.3.1 in Supplementary Material.
3.3.1. Cytotoxic activity evaluation
To measure the cytotoxic activity of the synthesized derivatives 2a-11 in hepatocel-lular carcinoma (HepG2) cell line (ATCC Cat No. HB-8065) as well as normal human liver cell line HL-7702 (ATCC Cat. No. 77402), cell viability assay was assessed using MTT assay method. Cells at density of 1 x 104 were seeded in a 96-well plate at 37 °C for 24 h under 5% CO2. After incubation, the cells were treated with different concentrations of the test compounds 2a-11 and incubated for 24 h, then 20 μl of MTT solution at 5 mg/mL was applied and incubated for 4 h at 37 °C. Dimethyl sulphoxide (DMSO) in volume of 100 µl was added to each well to dissolve the purple formazan that had formed. The color inten-sity of the formazan product, which represents the growth condition of the cells, is quan-tified by using an ELISA plate reader (EXL 800, USA) at 570 nm absorbance. The experi-mental conditions were carried out with at least three replicates, and the experiments were repeated at least three times.
3.3.2. Tubulin inhibitions Assay
Compounds 9, 10 and 11 were evaluated for their tubulin inhibitory activity levels according to the manufacturer’s instructions using # abcam Human Beta-tubulin simplestep […]
3.3.3. Cell cycle analysis of compound 9
Cell cycle analysis in HepG2 cells was investigated using fluorescent Annexin V-FITC/ PI detection kit (BioVision EZCellTM Cell Cycle Analysis Kit Catalog #K920) by flow cytometry assay. HepG2 cells at a density of 2 × 10^5 per well were harvested and washed twice in PBS. After that, the cells were incubated at 37 °C and 5% CO2. […] Afterward, medium was stained with DNA flu-orochrome PI for 15 min at 37 °C. The samples were immediately analyzed using Facs Calibur flow cytometer (Becton and Dickinson, Heidelberg, Germany).
3.3.4. Apoptosis assay for compound 9
Apoptosis in HepG2 cells was investigated using fluorescent Annexin V-FITC/ PI de-tection kit (BioVision Annexin V-FITC Apoptosis Detection Kit, Catalog #: K101) by flow cy-tometry assay. HepG2 cells at a density of 2 × 10^5 per well were treated with compound 9 at its IC50 (μM) for 48 h, then the cells were harvested and stained with Annexin V-FITC/ PI dye for 15 min in the dark at 37 °C. The samples were immediately analyzed using FACS Calibur flow cytometer (Becton and Dickinson, Heidelberg, Germany).
3.3.5. Measurement of mitochondrial membrane potential (MMP) for compound 9 MMP was measured by FACS analysis using abcam ab113852TMRE Mitochondrial Membrane Potential Assay Kit with DiOC2(3) staining using MitoProbe™ DiOC2(3) Assay Kit for Flow Cytometry (M34150). After treatment with compound 9 at its IC50 concentra-tion, cells were stained with DiOC2(3) dye for 30 min in the incubator, then harvested and washed with PBS. DiOC2(3)-stained cells were represented with Annexin binding buffer and incubated at 37 °C for 15 min. The samples were immediately analyzed using cell […]
3.3.6. Effect on p53, Bax and Bcl-2 p53, Bax and Bcl2 enzyme activities in HepG2 cells were detected in the presence of com-pound 9 at its IC50 concentration (μM). The levels of the tumor suppressor gene p53, apoptotic markers Bax as well as the anti-apoptotic marker Bcl-2 were assessed using p53 ELISA kit, Human Bax ELISA kit and Bcl-2 Elisa kit. […]

β-tubulin = assay: Tubulin polymerization inhibition (beta-tubulin ELISA in HepG2 cells); assay type: cell-based, human; details: HepG2 cells, each compound at its IC50 concentration (9 1.38, 10 2.52, 11 3.21, podo 2.08 μM), ELISA
Procedure: The selected candidates were tested at a concentration equal to their IC50 concentration dose value. […] See Section 3.3.2 in Supplementary Material. […] page 18: 3.3. Biological studies 3.3.1. Cytotoxic activity evaluation To measure the cytotoxic activity of the synthesized derivatives 2a-11 in hepatocel- lular carcinoma (HepG2) cell line (ATCC Cat No. HB-8065) as well as normal human liver cell line HL-7702 (ATCC Cat. No. 77402), cell viability assay was assessed using MTT assay method. Cells at density of 1 x 104 were seeded in a 96-well plate at 37 °C for 24 h under 5% CO2. After incubation, the cells were treated with different concentrations of the test compounds 2a-11 and incubated for 24 h, then 20 μl of MTT solution at 5 mg/mL was […] Dimethyl sulphoxide (DMSO) in volume of 100 μl was added to each well to dissolve the purple formazan that had formed. The color […] of the formazan product, which represents the growth condition of the cells, is quan- […] by using an ELISA plate reader (EXL 800, USA) at 570 nm absorbance. The experi- mental conditions were carried out with at least three replicates, and the experiments were repeated at least three times. 3.3.2. Tubulin inhibitions Assay […] according to the manufacturer's instructions using # abcam Human Beta-tubulin […] ELISA Kit ab245722. 3.3.3. Cell cycle analysis of compound 9 Cell cycle analysis in HepG2 cells was investigated using fluorescent Annexin V- FITC/ PI detection kit (BioVision EZCellTM Cell Cycle Analysis Kit Catalog #K920) by flow cytometry assay. […] twice in PBS. After that, the cells were incubated at 37 °C and 5% CO2. […] Apoptosis assay for compound 9 Apoptosis in HepG2 cells was investigated using fluorescent Annexin V-FITC/ PI de- tection kit (BioVision Annexin V-FITC Apoptosis Detection Kit, Catalog #: K101) by flow cy- tometry assay. […] The samples were immediately analyzed using FACS Calibur flow cytometer (Becton and Dickinson, Heidelberg, Germany). 3.3.5. Measurement of mitochondrial membrane potential (MMP) for compound 9 MMP was measured by FACS analysis using abcam ab113852TMRE Mitochondrial Membrane Potential Assay Kit with DiOC2(3) staining using MitoProbeTM DiOC2(3) Assay Kit for Flow Cytometry (M34150). After treatment with compound 9 at its IC50 concentra- tion, cells were stained with DiOC2(3) dye for 30 min in the incubator, then harvested and washed with PBS. […] The samples were immediately analyzed using cell Quest software. […] Effect on p53, Bax and Bcl-2 p53, Bax and Bcl2 enzyme activities in HepG2 cells were detected in the presence of com- pound 9 at its IC50 concentration (μM). The levels of the tumor suppressor gene p53, apoptotic markers Bax as well as the anti-apoptotic marker Bcl-2 were assessed using p53 ELISA kit, Human Bax ELISA kit and Bcl-2 Elisa kit. […]

SMILES | melting point [°C] | IC50 [1] [µM] | IC50 ([1]; Homo sapiens, HepG2, 24 h) [µM] | β-tubulin polymerization inhibition percentage (β-tubulin) [%]
COc1ccc(C(=O)N/C(=C\c2cc(OC)c(OC)c(OC)c2)C(=O)NNc2ccccc2)cc1OC (hydrate or solvate) [Compound 5, (Z)-3,4-Dimethoxy-N-(3-oxo-3-(2-Phenylhydrazinyl)-1-(3,4,5-Trimethoxyphenyl)prop-1-en-2-yl)benzamide] | 248 to 250 |  |  | 
COC(=O)/C(=C/c1cc(OC)c(OC)c(OC)c1)NC(=O)c1ccc(OC)c(OC)c1 [Compound 2a, (Z)-Methyl 2-(3,4-Dimethoxybenzamido)-3-(3,4,5-Trimethoxyphenyl)acrylate] | 248 to 250 | 14.4 ± 0.82 | < 20 | 
CCOC(=O)/C(=C/c1cc(OC)c(OC)c(OC)c1)NC(=O)c1ccc(OC)c(OC)c1 [Compound 2b, (Z)-Ethyl 2-(3,4-Dimethoxybenzamido)-3-(3,4,5-Trimethoxyphenyl)acrylate] | 248 to 250 | 11.1 ± 0.77 | < 20 | 
COc1ccc(C(=O)N/C(=C\c2cc(OC)c(OC)c(OC)c2)C(=O)NCC(=O)O)cc1OC [Compound 3a, (Z)-2-(2-(3,4-Dimethoxybenzamido)-3-(3,4,5-Trimethoxyphenyl)acrylamido)acetic Acid] | 248 to 250 | 8.13 ± 0.54 | < 10 | 
COc1ccc(C(=O)N/C(=C\c2cc(OC)c(OC)c(OC)c2)C(=O)NC(C)C(=O)O)cc1OC (stereo not drawn) [Compound 3b, (Z)-2-(2-(3,4-Dimethoxybenzamido)-3-(3,4,5-Trimethoxyphenyl)acrylamido)propanoic Acid] | 248 to 250 | 19.4 ± 1.43 | < 20 | 
COc1ccc(C(=O)N/C(=C\c2cc(OC)c(OC)c(OC)c2)C(=O)Nc2cccc(C)c2)cc1OC [Compound 4a, (Z)-3,4-Dimethoxy-N-(3-oxo-3-(M-tolylamino)-1-(3,4,5-Trimethoxyphenyl)prop-1-en-2-yl)benzamide] | 248 to 250 |  | 45.5 ± 2.89 | 
COc1ccc(C(=O)N/C(=C\c2cc(OC)c(OC)c(OC)c2)C(=O)Nc2ccc(O)cc2)cc1OC [Compound 4b, (Z)-N-(3-(4-Hydroxyphenylamino)-3-oxo-1-(3,4,5-Trimethoxyphenyl)prop-1-en-2-yl)-3,4-Dimethoxybenzamide] | 248 to 250 | 17.7 ± 1.1 | < 20 | 
COc1ccc(NC(=O)/C(=C/c2cc(OC)c(OC)c(OC)c2)NC(=O)c2ccc(OC)c(OC)c2)cc1 [Compound 4c, (Z)-3,4-Dimethoxy-N-(3-(4-Methoxyphenylamino)-3-oxo-1-(3,4,5-Trimethoxyphenyl)prop-1-en-2-yl)benzamide] | 248 to 250 |  | 23.7 ± 1.37 | 
COc1ccc(C(=O)N/C(=C\c2cc(OC)c(OC)c(OC)c2)C(=O)NNc2ccccc2)cc1OC [Compound 5, (Z)-3,4-Dimethoxy-N-(3-oxo-3-(2-Phenylhydrazinyl)-1-(3,4,5-Trimethoxyphenyl)prop-1-en-2-yl)benzamide] |  | 9.24 ± 0.52 | < 10 | 
COc1ccc(C(=O)N/C(=C\c2cc(OC)c(OC)c(OC)c2)C(=O)NNC(=O)c2ccncc2)cc1OC [Compound 6, (Z)-N-(3-(2-Isonicotinoylhydrazinyl)-3-oxo-1-(3,4,5-Trimethoxyphenyl)prop-1-en-2-yl)-3,4-Dimethoxybenzamide] | 248 to 250 | 8.74 ± 0.57 | < 10 | 
COc1ccc(C2=N/C(=C\c3cc(OC)c(OC)c(OC)c3)C(=O)N2c2ccc(O)cc2)cc1OC [Compound 7a, (Z)-2-(3,4-Dimethoxyphenyl)-1-(4-Hydroxyphenyl)-4-(3,4,5-Trimethoxybenzylidene)-1H-Imidazol-5(4H)-one] | 248 to 250 |  |  | 
COc1ccc(N2C(=O)/C(=C/c3cc(OC)c(OC)c(OC)c3)N=C2c2ccc(OC)c(OC)c2)cc1 [Compound 7b, (Z)-2-(3,4-Dimethoxyphenyl)-1-(4-Methoxyphenyl)-4-(3,4,5-Trimethoxybenzylidene)-1H-Imidazol-5(4H)-one] | 248 to 250 | 6.45 ± 0.24 | < 10 | 
COc1ccc(C2=N/C(=C\c3cc(OC)c(OC)c(OC)c3)C(=O)NN2C(N)=S)cc1OC [Compound 8, (Z)-3-(3,4-Dimethoxyphenyl)-6-oxo-5-(3,4,5-Trimethoxybenzylidene)-5,6-Dihydro-1,2,4-Triazine-2(1H)-Carbothioamide] | 248 to 250 |  |  | 
COc1ccc(C2=N/C(=C\c3cc(OC)c(OC)c(OC)c3)C(=O)NN2C(=O)c2ccncc2)cc1OC [Compound 10, (Z)-3-(3,4-Dimethoxyphenyl)-2-Isonicotinoyl-5-(3,4,5-Trimethoxybenzylidene)-1,2-Dihydro-1,2,4-Triazin-6(5H)-one] | 248 to 250 |  | 2.52 ± 0.24 | 80.51
COc1ccc(C2=N/C(=C\c3cc(OC)c(OC)c(OC)c3)C(=O)NN2c2nc(-c3ccccc3)cs2)cc1OC [Compound 11, (Z)-3-(3,4-Dimethoxyphenyl)-2-(4-Phenylthiazol-2-yl)-5-(3,4,5-Trimethoxybenzylidene)-1,2-Dihydro-1,2,4-Triazin-6(5H)-one] | 248 to 250 |  | 3.21 ± 0.22 | 69.95

From publication PMC9322052, “Synthesis and Biological Activity Screening of Newly Synthesized Trimethoxyphenyl-Based Analogues as Potential Anticancer Agents” (Molecules, 2022)
